US4579866A, “Phenylacetamides as anti-allergy, anti-asthma and anti-inflammatory agents” (USV Pharmaceutical Corp., priority 1984, dated 1986)

Key:
RAT 5-LIPOXYGENASE = target: T1, RAT 5-LIPOXYGENASE (Rattus norvegicus, UniProt P12527); assay: Biosynthesis of 5-HETE by rat polymorphonuclear leukocytes in vitro (inhibition of rat 5-lipoxygenase); assay type: cell-based; conditions: rat neutrophils, A23187, 3 minutes at 30° C.; for IC50: concentration at which 50% inhibition is observed, read-out: INHIBITION OF RAT 5-LIPOXYGENASE, I50
T1 construct: A suspension of rat neutrophils in buffer; endogenous in cells; host or cells: rat neutrophils (polymorphonuclear leukocytes)
T1 sequence (P12527 1-673): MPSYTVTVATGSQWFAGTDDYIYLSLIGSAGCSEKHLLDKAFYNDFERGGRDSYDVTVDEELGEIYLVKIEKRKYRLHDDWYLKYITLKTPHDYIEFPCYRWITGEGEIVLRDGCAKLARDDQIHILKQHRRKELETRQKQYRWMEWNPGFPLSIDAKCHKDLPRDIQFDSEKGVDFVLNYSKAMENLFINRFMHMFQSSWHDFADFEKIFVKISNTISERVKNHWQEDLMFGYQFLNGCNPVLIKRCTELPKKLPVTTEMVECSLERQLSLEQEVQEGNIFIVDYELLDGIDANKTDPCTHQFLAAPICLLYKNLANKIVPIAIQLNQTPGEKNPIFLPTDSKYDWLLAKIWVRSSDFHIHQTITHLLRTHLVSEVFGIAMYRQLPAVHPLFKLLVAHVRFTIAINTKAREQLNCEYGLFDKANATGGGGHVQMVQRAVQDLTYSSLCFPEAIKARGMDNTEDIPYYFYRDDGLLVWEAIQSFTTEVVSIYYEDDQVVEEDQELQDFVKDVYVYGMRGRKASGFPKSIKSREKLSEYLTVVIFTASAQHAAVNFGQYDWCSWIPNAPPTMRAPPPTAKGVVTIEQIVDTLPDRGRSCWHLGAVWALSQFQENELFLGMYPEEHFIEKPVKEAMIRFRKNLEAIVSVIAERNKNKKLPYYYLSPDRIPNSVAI
Experimental: Protocol for the Biosynthesis of 5-HETE by Rat Polymorphonuclear Leukocytes In Vitro
A suspension of rat neutrophils in buffer is incubated for 3 minutes at 30° C. with [^14 C]-arachidonic acid (AA) and calcium ionophore A23187. Citric Acid (2M) NDGA (10 mM) is used to quench the reaction. Following the addition of a trace amount of (^3 H)-5-HETE together with an excess of unlabeled 5-HETE to each tube, the mixture is extracted with chloroform/methanol. The organic layer is washed with dilute acid and an aliquot is transferred to glass tubes and dried. The residue is dissolved in a small volume of chloroform and an aliquot is spotted on silica gel TLC sheets, which are developed with an ethyl acetate/isoctane/water/acetic acid solvent system. The 5-HETE spots are visualized under UV light, cut out and placed in scintillation vials for counting. After adjusting for the extraction efficiency, the amount (pmole) of [^14 C]-5-HETE in each of the tubes is quantitated. The net pmoles of 5-HETE are obtained by subtracting the pmoles of 5-HETE in the tubes containing buffer alone (blank) from the pmoles of 5-HETE in the tubes containing […]. The ability of the test compounds to modulate the activity of this enzyme is determined by a decrease or increase in the net amount of 5-HETE produced.
(§1) If the percentage of inhibition exceeds 50%, the compounds are then evaluated in terms of response over a range of concentrations. From a plot of response against concentration, the I50 value is obtained. The I50 value is the concentration at which 50% inhibition is observed.

LTC4 = assay: Antagonism of leukotriene C4 binding (guinea pig peripheral lung strips, contraction); assay type: cell-based; conditions: Cavia porcellus, leukotriene C4 usually 0.2 nM, 37° C., read-out: ANTAGONISM OF LTC4 BINDING, I50
Experimental: Protocol for Antagonism of Leukotrines C-4 Binding
Peripheral strips of guinea pig lungs are prepared and hung in tissue baths according to the procedure described by Drazen et al. (Proc. Nat'l. Acad. Sci., U.S.A. 77, 4354-4358, 1980). Male guinea pigs (Charles River, 250-400 g) are sacrificed by cervical dislocation and their lungs rapidly removed. The individual lobes are dissected free and rinsed in Assay Buffer (118 mM NaCl, 5.4 mM KCl, 2.5 mM CaCl2, 25 mM […], 1 mM MgSO4, 1 mM NaH2 PO4, 11 mM glucose) which is continuously aerated with 95% oxygen/5% carbon dioxide. After the lobes are extensively rinsed, a strip of lung tissue, approximately 2 mm thick and 5-8 cm long, is cut off the sharpest and most peripheral portion of each lobe. The peripheral edge is cut almost completely around the outside of the lobe so that a U-shaped strip is obtained. These strips are rinsed in Assay Buffer and then connected with surgical silk thread to the support rods of the water jacketed tissue baths (10 ml chambers). The other ends of the strips are connected to Gould UC3 pressure transducers which had been previously calibrated. The tissue baths are aerated with 95% oxygen/5% carbon dioxide and maintained at 37° C. The tension on these strips are adjusted to 500 mg. The tissues are initially washed with fresh buffer every 5-10 minutes for about 30 minutes and thereafter washed with fresh assay buffer at least every 20 minutes.
After the tissue had been repeatedly washed and allowed to equilibrate in the tissue baths, they are challenged with 1 μM histamine to standardize the contractions for each tissue.
Responses of each tissue to a predetermined concentration (usually 0.2 nM) of leukotriene C4 are then obtained. Compounds are then tested for their ability to antagonize to leukotriene C4 immediately upon challenge.
as §1

Structure (SMILES) | IC50 (RAT 5-LIPOXYGENASE) [µM] | inhibition at 10 µM (RAT 5-LIPOXYGENASE) [%] | IC50 (LTC4) [µM]
C=CCOc1ccc(CC(=O)N(C)[C@@H](C)[C@H](O)c2ccccc2)cc1Cl [4-Allyloxy-3-chlorophenylacetyl-(-)-ephedrine] | 30 |  | 
C=CCOc1ccc(CC(=O)NCC(O)c2ccccc2)cc1Cl (centres unmarked) [N--[4-Allyloxy-3-chlorophenylacetyl]-2-hydroxy-2-phenylethylamine] | 20 |  | 
COc1ccc(CC(=O)N(C)CCc2ccccc2)cc1Cl [N--[3-Chloro-4-methoxyphenylacetyl]-N--methyl-2-phenylethylamine] |  | 33 | 
C=CCOc1ccc(CC(=O)N(C)Cc2ccccc2)cc1Cl [N--benzyl, N--methyl-3-chloro-4-allyloxy-phenylacetamide] | 20 |  | 
C=CCOc1ccc(CC(=O)NCC(C)c2ccccc2)cc1Cl (centres unmarked) [N--[4-Allyloxy-3-chlorophenylacetyl]-1-amino-2-phenylpropane] |  | 18 | 2.5
C=CCOc1ccc(CC(=O)N(C)[C@H](C)[C@@H](O)c2ccccc2)cc1Cl [4-Allyloxy-3-chlorophenylacetyl-(+)-ephedrine] | 15 |  | 
C=CCOc1ccc(CC(=O)N(C)CC(O)c2ccccc2)cc1Cl (centres unmarked) [N--[4-Allyloxy-3-chlorophenylacetyl]-N--methyl-2-hydroxy-2-phenylethylamine] | 1.8 |  | 18
C=CCOc1ccc(CC(=O)NC(CO)C(O)c2ccccc2)cc1Cl [N--[4-Allyloxy-3-chlorophenylacetyl]-3S-hydroxy-L-phenylalaninol] |  | 36 | 
C=CCOc1ccc(CC(=O)N(CCO)Cc2ccccc2)cc1Cl [N--benzyl, N--[2-hydroxyethyl]-3-chloro-4-allyloxyphenylacetamide] |  | 41 | 

Second part, the compound after the results:

IC50 (RAT 5-LIPOXYGENASE) [µM] | inhibition at 10 µM (RAT 5-LIPOXYGENASE) [%] | IC50 (LTC4) [µM] | Structure (SMILES)
 | 40 |  | O=C(Cc1ccc(OCc2ccccc2)c(Cl)c1)N[C@H](Cc1ccccc1)C(=O)O [4-Benzyloxy-3-chlorophenylacetyl-D-phenylalanine]
0.7 |  | 9 | C=CCOc1ccc(CC(=O)N[C@H](Cc2ccccc2)C(=O)OC)cc1Cl [4-Allyloxy-3-chlorophenylacetyl-D-phenylalanine methyl ester]
 | 27 | 5 | C=CCOc1ccc(CC(=O)N[C@@H](Cc2ccccc2)C(=O)OC)cc1Cl [4-Allyloxy-3-chlorophenylacetyl-L-phenylalanine methyl ester]
 | 50 |  | COC(=O)[C@@H](Cc1ccccc1)NC(=O)Cc1ccc(OCc2ccc3ccccc3n2)c(Cl)c1 [1-Chloro-4-[2-quinolinemethyloxy]-phenylacetyl-D-phenylalanine methyl ester]
8 |  | 20 | C=CCOc1ccc(CC(=O)N(CC(=O)OCC)Cc2ccccc2)cc1Cl [4-Allyloxy-3-chlorophenylacetyl-N--benzylglycine ethyl ester]
 | 29 | 5 | COC(=O)[C@H](Cc1ccccc1)NC(=O)Cc1ccc(OCc2ccccc2)cc1 [4-Benzyloxyphenylacetyl-L-phenylalanine methyl ester]
 | 33 | 3 | C=CCOc1ccc(CC(=O)N[C@H](CO)Cc2ccccc2)cc1Cl [N--[4-Allyloxy-3-chlorophenylacetyl]-L-phenylalaninol]
3.8 |  |  | COC(=O)[C@@H](Cc1ccccc1)NC(=O)Cc1ccc(OC)c(Cl)c1 [3-Chloro-4-methoxyphenylacetyl-D-phenylalanine methyl ester]
 | 33 |  | COC(=O)[C@H](Cc1ccccc1)NC(=O)c1ccc(OC2C=CCCC2)cc1 (stereo partly drawn) [4-[2-Cyclohexenyloxy]-benzoyl-L-phenylalanine methyl ester]
 | 25 | 9 | C=CCOc1ccc(CC(=O)NC(Cc2ccc(Cl)cc2)C(=O)OC)cc1Cl (racemic) [4-Allyloxy-3-chlorophenylacetyl-DL-p-chlorophenylalanine methyl ester]
 | 34 | 15 | C=CCOc1ccc(C(=O)N[C@@H](Cc2ccccc2)C(=O)OC)cc1Cl [4-Allyloxy-3-chlorobenzoyl-L-phenylalanine methyl ester]
